A short description of this data set: Human HepG2 cell viability assay in 384 well format. The class given is toxicity, cell-based. The arrangement: dose 125 nL, time 70.5 hour; concentration not given beside the values. Conditions: HepG2 cells, read-out: Inhibition.
Regarding `CN1CCN(C(=O)c2cc3occc3n2Cc2ccccc2F)CC1`, the cytotoxicity at 70.5 h was -10.6%.
On to `O=C(C1CC1)N1CCC(O)(CN2CCN(c3ccccc3)CC2)C1` (stereo not given), for which the cytotoxicity at 70.5 h is -4.63%.
As to `CS(=O)(=O)c1ccccc1NC(=O)N[C@@H]1c2ccccc2C[C@@H]1O`, the cytotoxicity at 70.5 h worked out at 12.9%.
Consider `CCc1cnc(N2CC[C@H]3[C@H]2CC(=O)N3c2cccnc2)nc1`, for which the cytotoxicity at 70.5 h is -10%.
In the case of `CN(C)CC1CN(c2cnc3ccccc3n2)CCO1` (stereo not given), the cytotoxicity at 70.5 h amounted to 11.3%.
Consider `COc1cccc(OCCNS(=O)(=O)Cc2ccccc2)c1`, for which the cytotoxicity at 70.5 h turned out to be 19.4%.
Then `Cc1ccc(CN2CCNC(=O)C2CC(=O)NCc2n[nH]c(C)n2)cc1` (stereo not given), with -3.13%.
In the case of `CN(C)CCCNC(=O)c1cc(Cl)ccc1Cl`, the cytotoxicity at 70.5 h was -14.5%.
As to `N#Cc1cc(NC(=O)c2cc[nH]n2)ccc1N1CCC(O)CC1`, the cytotoxicity at 70.5 h was 9.29%.
On to `COCCCn1ccc(NC2CCOCC2)n1`, for which the cytotoxicity at 70.5 h was -7.45%.
Regarding `Cc1nc(CN2CCC(C(=O)O)(n3ccc(C(C)C)n3)CC2)co1`, the cytotoxicity at 70.5 h is -0.222%.
As to `CN(C)c1ccccc1C(=O)N1C[C@@H](CN2CCC(O)CC2)[C@@H](CO)C1`, the cytotoxicity at 70.5 h worked out at 1.37%.
On to `CCNC(=O)CN(CC)S(=O)(=O)c1c(Br)cc2[nH]c(=O)oc2c1Cl`, for which the cytotoxicity at 70.5 h was -12.3%.
Then `Cc1cnn(CC(C)Nc2nc3ccccc3o2)c1` (stereo not given), with 24.3%; and `Cc1ccc(CN2CCCC3(CCN(Cc4ccc(C)o4)C3)C2)o1` (stereo not given), with -11.5%; and `Cc1ccc(CN2CC[C@@]3(O)CCN(S(=O)(=O)N(C)C)C[C@H]3C2)cc1C`, with -16%.
For `CS(=O)(=O)NCC1CCCN(C(=O)Nc2ccccc2Cl)C1` (stereo not given), the cytotoxicity at 70.5 h was 1.65%.
Then `CN(C)C(=O)CN1C(=O)CCC12CCN(Cc1cccs1)CC2`, with 9.34%; and `C1CC(c2noc(C3CC3)n2)CN(Cc2noc(C3CC3)n2)C1` (stereo not given), with -7.62%.
Regarding `COc1ccc(CC(=O)Nc2c(C)nc(N3CCOCC3)nc2C)cc1`, the cytotoxicity at 70.5 h came to 1.49%.
In the case of `CN(Cc1ccc(C2CC(=O)Nc3cc4[nH]ncc4cc32)o1)S(C)(=O)=O` (stereo not given), the cytotoxicity at 70.5 h is -0.109%.
`Cn1cncc1CN1C[C@@H]2OCCN(c3ncccn3)[C@@H]2C1`: the cytotoxicity at 70.5 h is -9.56%.
The same measure for `Cc1ncccc1NC(=O)[C@@H]1CCO[C@@H]2CCN(c3ccncn3)C[C@H]21`: -6.04%.
For the compound `CN(CC(=O)N1CCCCC1Cn1cccn1)Cc1ccccc1` (stereo not given), the cytotoxicity at 70.5 h was 13%.
Consider `CN(C)c1ncccc1CNc1cc(N2CCCC2CO)ncn1` (stereo not given), for which the cytotoxicity at 70.5 h was 10.5%.
Consider `O=C(CCCc1nnc(-c2ccccc2)o1)N1CCN(C2CC2)CC1`, for which the cytotoxicity at 70.5 h was determined as 0.0439%.
Regarding `O=S(=O)(CCN1CCOC(Cn2cncn2)C1)c1ccccc1` (stereo not given), the cytotoxicity at 70.5 h is -17.9%.
Then `CCCS(=O)(=O)N1CC[C@H]2OCC[C@@]2(c2nnc(C)o2)C1`, with 8.91%; and `Cc1cc(C2CCCN(C(=O)COc3cc(F)ccc3F)C2)n[nH]1` (stereo not given), with 3.52%; and `CN(Cc1ccc2c(c1)OCCO2)C(=O)NCCc1cnn(C)c1`, with 6.83%.
The same measure for `Cn1cc(C(=O)Nc2ccc3c(c2)CN(C(=O)C2CC2)CC3)nn1`: -8.54%.
The same measure for `CCN(CC)c1nc(C)cc(C(=O)Nc2cnn(CC)c2)n1`: -12.1%.
Turning to `CN1CC2(CCCN(C(=O)Cc3cccc(O)c3)C2)OC1=O` (stereo not given), the cytotoxicity at 70.5 h was -6.74%.
As to `CC(C)N(Cc1cnn(C)c1)C(=O)c1ccnc(N(C)C)c1`, the cytotoxicity at 70.5 h was -7.21%.
As for `COC(=O)c1ncccc1N1CCN(C(=O)CN2CCOCC2)CC1`, the cytotoxicity at 70.5 h was determined as 29.5%.
On to `Cc1nn(CC(C)C)c(C)c1CC(=O)N1CCCC(CNS(C)(=O)=O)C1` (stereo not given), for which the cytotoxicity at 70.5 h is -13.2%.
For `Cn1cnc(S(=O)(=O)NCC2(O)CCc3ccccc3C2)c1` (stereo not given), the cytotoxicity at 70.5 h is -7.71%.
Turning to `CN(Cc1ccc(O)cc1)C(=O)NC1CCCN(c2ncccn2)C1` (stereo not given), the cytotoxicity at 70.5 h was -3.14%.
In the case of `O=C(Nc1ccc(CC(=O)N2CCCC2)cc1)NC1CC1`, the cytotoxicity at 70.5 h is -7.44%.
For `Cc1nc(CN2CCN(C(=O)c3cc(C4CC4)on3)CC2)cs1`, the cytotoxicity at 70.5 h is -14.7%.
Regarding `N#Cc1ccc(C2CC(=O)Nc3c(C(=O)O)nsc32)cc1` (stereo not given), the cytotoxicity at 70.5 h is -5.94%.
Regarding `COc1cccc(CN2CCN3C(=O)NC[C@H]3C2)n1`, the cytotoxicity at 70.5 h was -7.27%.
In the case of `Cc1cccc(CN2CCc3ncnc(C)c3CC2)n1`, the cytotoxicity at 70.5 h is -2.78%.
Turning to `Cc1noc(C2CCN(c3oc(C)nc3C#N)CC2)n1`, the cytotoxicity at 70.5 h came out at 2.04%.
Turning to `CCn1nc(C)c2nc(C(C)C)nc(NCCCO)c21`, the cytotoxicity at 70.5 h was -16.2%.
`CN(CCCc1cc(-c2ccccc2)n[nH]1)C(=O)CCCn1cncn1`: the cytotoxicity at 70.5 h is -6.04%.
With `Cc1cccc(N2CCN(C(=O)NC(C)c3nncn3C)CC2)c1` (stereo not given), the cytotoxicity at 70.5 h turned out to be 20.1%.
For the compound `CCC(=O)N1CCC(c2nc(N3CCCCC3)ncc2S(C)(=O)=O)CC1`, the cytotoxicity at 70.5 h is -2.83%.
Consider `COc1cc(CN(C(=O)Nc2cccnc2OC)C2CC2)ccc1O`, for which the cytotoxicity at 70.5 h was -19.7%.
Take `COCCC(=O)N1CCC(NC(=O)c2cscc2C)CC1`: the cytotoxicity at 70.5 h was found to be 6.09%.
Turning to `O=C(CN1CCCCC1Cn1cncn1)Nc1ccncc1` (stereo not given), the cytotoxicity at 70.5 h was 3.49%.
The same measure for `O=C(C1CC1)N1CCC2(CC1)CNCCO2`: 4.17%; for `CCN(CC(=O)NC)S(=O)(=O)c1cnc2c(c1)c(C)nn2C`: -14.3%; for `O=C(C1CCCCN1Cc1nccn1CC(F)(F)F)N1CCCC1` (stereo not given): -2.02%.
For the compound `COCC(=O)N1CCCCC1c1nccc(C)n1` (stereo not given), the cytotoxicity at 70.5 h turned out to be 3.46%.
Then `C1CCC(CO[C@@H]2CC[C@H]3[C@H]2OCCN3CC2CCOCC2)C1`, with -84.4%; and `COC1CN(C(=O)C2CC2)CCC(=O)N(C)c2ccccc21` (stereo not given), with 2.56%; and `CC(=O)N1CCO[C@@H]2CN(C(=O)c3ccc4ncccc4c3)CC[C@@H]2C1`, with -3.03%.
`COc1cc(OC)c2c(=O)oc(CC(O)CC(C)=O)cc2c1` (stereo not given): the cytotoxicity at 70.5 h is 9.76%.
Regarding `O[C@@H]1C[C@@H](c2nc(Cc3ccccc3)no2)N(Cc2ccc(F)cc2)C1`, the cytotoxicity at 70.5 h is -19.1%.
The same measure for `COc1ccc2cc(C3CN(C(=O)CN4CCCC4)CCO3)ccc2c1` (stereo not given): 2.28%; for `COCC1(NC(=O)C(c2ccc(F)cc2)N(C)C)CCCC1` (stereo not given): 7.27%.
With `N#CCc1ccc(OCC(=O)N2CCCC(n3cccn3)C2)cc1` (stereo not given), the cytotoxicity at 70.5 h was -10.5%.
For `CCn1cc(Br)c(C(=O)NCc2ccc(F)cc2)n1`, the cytotoxicity at 70.5 h is 4.64%.
Turning to `COCC(O)CNC(=O)Nc1c(F)cc(F)cc1-c1ccccc1` (stereo not given), the cytotoxicity at 70.5 h was -11.2%.
Turning to `O=C(NCc1cc[nH]n1)N(CCCO)C1CCc2ccccc21` (stereo not given), the cytotoxicity at 70.5 h was -0.509%.
As for `NC1CCCc2nc(-c3ccccc3)ncc21` (stereo not given), the cytotoxicity at 70.5 h was -8.86%.
Turning to `COCCN1CCC2(CCCN(C(=O)c3cnoc3C)C2)C1=O` (stereo not given), the cytotoxicity at 70.5 h was -0.05%.
The same measure for `CC(C)Cn1cncc1CNC1CCSC1` (stereo not given): 21.1%; for `Cc1cc(S(=O)(=O)N2CCCc3cc(Br)ccc32)sc1C(=O)O`: -6.91%.

(Values after ChEMBL document CHEMBL3507680, “University of Dundee, Gates Library screen for HepG2 cell viability”.)
